In ChEMBL document CHEMBL2448809, “UCSF DeRisi Lab MMV Box Apicoplast Screening” one finds Ratio data, which are given here for 93 compounds.

For this assay, the system named is Plasmodium falciparum. As to the kind of experiment: MMV: Compounds (1uM) were screened in a 72hr growth assay monitored by flow cytometry both in the presence and absence of supplemental isopentenyl pyrophosphate (IPP) 200uM. Compounds which fail to show anti-malarial activity when chemically rescued by IPP are therefore specific to the apicoplast. The values are expressed as the ratio of the corresponding activity with and without IPP, respectively. In kind it is functional, W2.
As to `CN1CCN(c2ccc(Nc3c4ccccc4nc4ccccc34)cc2)CC1`, the Ratio was 0.8.
The value for `CN(C)CCCNc1c2ccccc2nc2ccccc12` was 0.7564; that for `CCN1CCCC1CNc1[nH]cnc2c3cc(Cl)ccc3nc1-2` (stereo not drawn) was 0.925; that for `COc1ccc(-c2c(C)nn3c(N)c(C#N)cnc23)cc1OC` was 0.831.
The value for `CSC1=NC(=Nc2c(C)cccc2C)C2(CCC(C(C)(C)C)CC2)N1c1ccc(Cl)cc1` (stereo not drawn) was 0.8243; that for `C[n+]1c2ccccc2nc2ccc(NCCO)cc21` was 0.9178.
The value for `Cc1cc(C)cc(Nc2cc(C)nc3nc(C(F)(F)F)nn23)c1` was 0.8519; that for `O=C(NCC(c1ccsc1)N1CCCCCC1)c1ccc(C(F)(F)F)cc1` (stereo not drawn) was 0.9077; that for `COc1ccc(-c2cc3c(SCC(=O)Nc4cc(C(F)(F)F)ccc4Cl)nccn3n2)cc1` was 0.9714.
As to `Cc1ccc(-c2cc3c(SCC(=O)Nc4cc(C(F)(F)F)ccc4Cl)nccn3n2)cc1`, the Ratio amounted to 0.9375.
The value for `CCN(CC)CCNc1ncnc2c1[nH]c1ccc(Cl)cc12` was 0.6923.
As to `CCOC(=O)c1cnc2ccc(CC)cc2c1O`, the Ratio is listed as 1.
To `Cc1ccc(-c2cc3c(nn2)-c2ccccc2C3=O)cc1` belongs 0.7253.
The value for `CCN(CC)CCNc1ccnc2cc(Cl)ccc12` was 0.8734.
The value for `Cc1ccc(Nc2nc(-c3ccccn3)cs2)cc1` was 0.7264.
As for `CCCCCC(=O)N1c2ccccc2N=C2CC(c3ccc(OC)c(OC)c3)CC(O)=C2C1c1ccc(C(F)(F)F)cc1` (stereo not drawn), the Ratio was determined as 0.7792.
To `Cc1cc(Nc2ccc3ccccc3c2)n2ncnc2n1` belongs 0.8919.
Take `Cc1cc(NCCN2CCCCC2)c2ccc3ccccc3c2n1`: the Ratio came to 0.8873.
The value for `COc1ccc(-n2ccnc2SCC(=O)Nc2cc(C)ccc2C)c(OC)c1` was 0.75; that for `CCN1CCN(Cc2ccc(NC(=O)c3cc4ccc5cccnc5c4[nH]3)cc2)CC1` was 1.563.
To `COc1ccc(-c2nc(NC(=O)CS(=O)(=O)c3ccc(F)cc3)sc2C)cc1` belongs 0.8289.
The value for `O=C(O)C1Cc2c([nH]c3ccccc23)C(c2ccc(Cl)cc2Cl)N1` (stereo not drawn) was 6.316.
On to `CCC(C)NCC(O)(c1ccc(Cl)cc1)c1ccc(Cl)cc1` (stereo not drawn), for which the Ratio amounted to 1.02.
To `Cc1ccc(N2C(=O)C3C(C2=O)C2(c4ccccc4)C(=O)C3(c3ccccc3)C(c3ccccc3)=C2c2ccccc2)cc1` (stereo not drawn) belongs 1.121.
Consider `CCc1c(C)c(=N)c2ccccc2n1C.I`, for which the Ratio was found to be 1.064.
The value for `COc1cccc(NC(=O)[C@H](C(C)C)n2c(=O)[nH]c3ccccc3c2=O)c1` was 0.7619; that for `CCOC(=O)c1cn(CC)c2cc(N(C)CCc3ccc(OC)c(OC)c3)c(F)cc2c1=O` was 0.75; that for `CCC(c1ccccc1)c1nn2c(-c3cccs3)nnc2s1` (stereo not drawn) was 0.775.
To `CC(C)(C)c1ccc(O)c(CNC2CCCCC2)c1` belongs 0.8356.
`O=[N+]([O-])c1ccc(C=NNc2nc3ccccc3[nH]2)cc1`: the Ratio is 1.132.
With `CCOc1cc2c(cc1OCC)C(c1cc(OC)c(O)cc1Cl)NCC2` (stereo not drawn), the Ratio worked out at 0.9254.
The value for `CC1CN(C(=O)c2sc3ccccc3c2Cl)CC(C)O1` (stereo not drawn) was 0.8415.
Turning to `COCCNC(=O)c1ccc(OC2CCN(Cc3ccc(F)c(F)c3)CC2)c(Cl)c1`, the Ratio is reported as 1.063.
To `CN(C)c1ccc(C=Cc2nc(=O)c3ccccc3o2)cc1` belongs 0.8302; to `COc1ccc(C2=C(c3ccc(OC)cc3)C3(c4ccccc4)C(=O)C2(c2ccccc2)C2C(=O)N(c4ccc(C)cc4)C(=O)C23)cc1` (stereo not drawn), 1.0625; to `CCOC(=O)c1c(NC(=O)c2ccccc2)sc2c(O)c(CN(CC)CC)ccc12`, 0.8592.
The value for `CCOC(=O)C1=C(c2ccccc2)N=c2sc(=Cc3cc(C)n(-c4ccc(F)cc4)c3C)c(=O)n2C1c1cccc(OC)c1OC` (stereo not drawn) was 0.7267; that for `CCC1(C)CC(CCNCc2ccccc2O)(c2ccc(C)cc2)CCO1` (stereo not drawn) was 0.8378.
With `OC(CNC1CCCCC1)Cn1c2ccccc2c2ccccc21` (stereo not drawn), the Ratio came to 1.115.
The value for `Cc1cc(Nc2ccc(C)c(Cl)c2)n2nc(C(F)(F)F)nc2n1` was 0.6628; that for `COc1cccc(C=Cc2nc(=O)c3ccccc3o2)c1OC` was 0.4632; that for `CCCN(CCC)CC(O)COc1ccccc1C(=O)Nc1ccccc1` (stereo not drawn) was 0.8553.
The value for `Fc1ccc2[nH]c3c(NCCCN4CCOCC4)ncnc3c2c1` was 0.8594; that for `COc1ccc(C(=O)Nc2nonc2-c2ccc(OC)c(OC)c2)cc1Cl` was 0.8261; that for `COCCN(C(=O)Cc1cccs1)C(C(=O)NCc1ccc(OC)cc1)c1ccc(C(C)C)cc1` (stereo not drawn) was 0.8315.
To `COc1ccc(C=C2SC(=N)N(c3ccccc3OC)C2=O)cc1` belongs 0.8861.
For the compound `COc1ccc(NC(=O)C2c3ccccc3C(=O)N(CC(C)C)C2c2cccs2)cc1Cl` (stereo not drawn), the Ratio worked out at 0.9242.
To `CCOC(=O)c1c(C)n(-c2ccc(Cl)cc2)c2ccc(OC(=O)C=Cc3ccccc3)cc12` belongs 1.121; to `COc1ccc2c(c1)OC(O)(C(F)(F)C(F)(F)F)CC2=O` (stereo not drawn), 0.9; to `FC(F)(F)c1cccc(CNC2CCN(CCc3ccccc3)CC2)c1`, 0.9344.
The value for `Oc1ccc(Cl)cc1CNc1nc2ccccc2[nH]1` was 1.068; that for `CCOc1cc(Cl)c(C(C)NC(=O)c2ccccc2)cc1OCC` (stereo not drawn) was 0.9848; that for `C=CC12CCN(CC1)C(C(O)c1ccnc3ccc(OC)cc13)C2.Cl` (stereo not drawn) was 0.6933.
To `Cc1ccc(-c2cc3nc4c(c(O)n3n2)CCCC4)cc1` belongs 0.9459; to `Cc1cccc(Nc2nc(N)c3ccccc3n2)c1.Cl`, 0.9275.
Consider `CCn1c(CN2CCN(Cc3ccccc3)CC2)nc2cc(NC(=O)c3cccs3)ccc21`, for which the Ratio was 0.8481.
For the compound `COc1ccccc1CNC(=O)CCn1c(=O)[nH]c2ccccc2c1=O`, the Ratio is listed as 1.153.
To `O=C(Nc1ccc(Cl)cc1)N1CCN(c2ccc3nncn3n2)CC1` belongs 0.8112; to `c1ccc2cc3c(Nc4ccc(N5CCOCC5)cc4)ccnc3cc2c1`, 0.7931.
Turning to `Cc1cc(C)c2c(c1)OCN(Cc1ccccc1Cl)C2`, the Ratio came to 0.8871.
With `COc1cc(OC)c(N(C)C(=O)c2cc3c(s2)-c2ccccc2S(=O)(=O)C3)cc1Cl`, the Ratio was 1.
To `COc1ccccc1NC1=C(N2CCCCC2)C(=O)c2ccccc2C1=O` belongs 0.9344; to `CCOC(=O)c1cn(CC)c2cc(N3CCCCC3)c(F)cc2c1=O`, 0.6824.
`CCCc1cc(O)c2c3c(c(=O)oc2c1)CN(C)CC3`: the Ratio was found to be 0.8028.
To `Cc1cc(NC(=O)C2c3ccccc3C(=O)N(CC(C)C)C2c2cccs2)no1` (stereo not drawn) belongs 0.791.
To `Cl.Oc1ccccc1CNCC12CC3CC(CC(C3)C1)C2` belongs 0.8; to `CNCCCNc1ccnc2cc(Cl)ccc12`, 0.8333; to `COc1ccccc1CNC(=O)CCn1c(=O)[nH]c2ccsc2c1=O`, 1.123.
To `COc1ccc(Br)cc1C1Nc2ccc3ccccc3c2C2=C1C(=O)CC(c1ccccc1)C2` (stereo not drawn) belongs 0.8077.
Turning to `Cc1cc(C=C2SC(=Nc3ccccc3)N(C3CCCC3)C2=O)c(C)n1-c1ccc(Cl)cc1`, the Ratio is 1.038.
The value for `CCn1c(SCC(=O)Nc2cc(C(F)(F)F)ccc2Cl)nc2ccccc2c1=O` was 1.
To `Cc1ccc(Cn2c(N3CCC(C(=O)NCc4cccs4)CC3)nc3ccccc32)cc1` belongs 1.032.
To `CC1CCN(Cc2ccc(NC(=O)c3cc4ccc5cccnc5c4[nH]3)cc2)CC1` belongs 1; to `O=C(Nc1ccc(Cl)cc1C(=O)Nc1ccncc1)c1ccc(Cl)cc1Cl`, 0.7485.
Regarding `CCOc1ccc(-c2nonc2NC(=O)c2cccc(C)c2)cc1OCC`, the Ratio was found to be 0.6977.
Regarding `CCc1ccc(Nc2cc(C)c3ccc(O)cc3n2)cc1.Cl`, the Ratio came out at 0.7867.
The value for `COc1ccc2c(=O)cc(C(Cl)(Cl)Cl)oc2c1` was 0.7571; that for `CC(C)(C)CC(C)(C)NCC(O)COc1ccc2c(c1)CCC2.Cl` (stereo not drawn) was 1.052; that for `CSc1ccccc1C(=O)Nc1nc(-c2ccccn2)cs1` was 0.8125.
To `CCCCc1ccc(NS(=O)(=O)c2cc3c4c(c2)CCN4C(=O)CC3)cc1` belongs 0.6295.
As for `COc1ccc(-c2nc3cc(Cc4ccc5[nH]c(-c6ccc(OC)cc6)nc5c4)ccc3[nH]2)cc1`, the Ratio is 1.389.
To `CCOC(=O)c1ccc2nc(-c3ccccc3)cc(O)c2c1` belongs 0.3465; to `Cc1cc(Nc2ccc(Cl)cc2)n2nc(C(F)(F)F)nc2n1`, 0.9718; to `COc1ccc(C(C)=O)cc1N1C(=O)C2C(C1=O)C1(c3ccccc3)C(=O)C2(c2ccccc2)C(c2ccc(C)cc2)=C1c1ccc(C)cc1` (stereo not drawn), 0.8421.
The value for `CCCCCCOC(=O)C1=C(C)NC(=O)NC1c1ccccc1F` (stereo not drawn) was 0.6566.
To `COc1ccc(C2Sc3ccccc3N=C3C2=C(O)c2ccccc23)cc1` (stereo not drawn) belongs 1.228; to `Cc1ccc(N2C3c4ccccc4N(S(=O)(=O)c4ccc(C)cc4)C2c2ccccc2N3S(=O)(=O)c2ccc(C)cc2)cc1`, 0.3473; to `CCCc1c(CC)c(=N)c2ccccc2n1C`, 1.043.
Turning to `Cc1ccc(Nc2nc(NCCO)c3ccccc3n2)cc1C`, the Ratio is 0.8028.
Take `CC1CCCCN1CCCNC(=O)c1ccc2c(c1)sc1nc(-c3ccc(F)cc3)cn12` (stereo not drawn): the Ratio is on record as 1.167.
Turning to `CCOC(=O)c1cnc2c(C)cc(C)cc2c1Nc1ccc(OC)c(OC)c1`, the Ratio is given as 1.122.
To `COc1ccc(NC(=O)C2c3ccccc3C(=O)N(CC(C)C)C2c2cccs2)cc1` (stereo not drawn) belongs 1.197; to `c1ccc(Cn2c(N=Nc3c(Nc4ccccc4)ccc4ccccc34)nc3ccccc32)cc1`, 0.863.
